Values of other authors as cited in US20220387443A1, “RESPIRATORY SYNCYTIAL VIRUS FUSION PROTEIN INHIBITOR COMPOSITIONS AND METHODS FOR THE TREATMENT AND PROPHYLAXIS OF RSV DISEASES USING THE SAME” (priority 2019, published 2022).

Assays:
RSV infection = settings: selected infants, intramuscularly 15 mg/kg once a month for the duration of RSV season
RSV = settings: human RSV viral challenge studies

Compound	reduction of hospitalization rate caused by RSV infection (RSV infection)	reduction of viral load (RSV) [log 10]
palivizumab: humanized monoclonal antibody against RSV fusion (F) protein	45-55%	–
Cc1cn2nc([C@@H]3CCCCN3C(=O)c3cc(Cl)ccc3NS(C)(=O)=O)cc2nc1N1CC[C@H](N)C1 [GS-5806]	–	4.2
